The values below come from patent publication US20260125382A1, “COMPOUNDS FOR INHIBITING OR DEGRADING CDK2 AND/OR CDK9 AND MEDICINAL USE THEREOF” (KOREA RESEARCH INSTITUTE OF CHEMICAL TECHNOLOGY, priority 2022, published 2026).

Each structure is given as a SMILES string.

One test concerns the target T1, CDK9 (Homo sapiens, UniProt P50750).
T1 construct: endogenous in cells; host or cells: MDA-MB-231
Nature of the test: CDK protein degradation activity (Western blotting), CDK9. The class given is cell-based. The settings on record: MDA-MB-231 cells, 16 hours, Western blot. The method, boiled down:
(§1)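 MDA-MB-231 cells were treated with compound at final concentrations of 100 nM, 1 μM and 10 μM, or DMSO vehicle, for 16 h. Lysates were resolved by SDS-PAGE and immunoblotted for CDK2, CDK9 and tubulin, with band intensities quantified densitometrically.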

Another test concerns the target T2, CDK2 (Homo sapiens, UniProt P24941).
T2 construct: endogenous in cells; host or cells: MDA-MB-231
Nature of the test: CDK protein degradation activity (Western blotting), CDK2. The test is classed as cell-based. To be noted: MDA-MB-231 cells, 16 hours, Western blot. The method, boiled down: as §1
In general terms: Immunoblotting shows a protein as a band on a membrane.

T1 sequence (P50750 whole entry): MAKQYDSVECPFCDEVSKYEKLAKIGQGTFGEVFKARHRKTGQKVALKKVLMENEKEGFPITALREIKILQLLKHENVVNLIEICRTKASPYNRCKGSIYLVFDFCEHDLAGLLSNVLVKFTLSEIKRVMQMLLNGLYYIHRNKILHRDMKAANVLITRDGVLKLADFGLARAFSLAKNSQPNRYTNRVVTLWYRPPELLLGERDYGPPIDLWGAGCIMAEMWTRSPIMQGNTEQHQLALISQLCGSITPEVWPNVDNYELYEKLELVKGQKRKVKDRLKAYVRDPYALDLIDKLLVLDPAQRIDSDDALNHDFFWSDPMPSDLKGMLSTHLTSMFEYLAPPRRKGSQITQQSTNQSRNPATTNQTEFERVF

On to `Cc1cccc(C(=O)NC2CC(n3cnc4c(Nc5ccc(N6CCN(C(=O)COc7cccc8c7C(=O)N([C@H]7CCC(=O)NC7=O)C8=O)CC6)cc5)ncnc43)C2)n1` (stereo partly drawn) [Compound 85, N-((1s,3s)-3-(6-((4-(4-(2-((2-(2,6-dioxopiperidin-3-yl)-1,3-dioxoisoindolin-4-yl)oxy)acetyl)piperazin-1-yl)phenyl)amino)-9H-purin-9-yl)cyclobutyl)-6-methylpicolinamide], for which, on CDK9, the “Enzyme degradation CDK9 (% remaining) @ 0.1 μM” value was found to be 60%, the “Enzyme degradation CDK9 (% remaining) @ 1 μM” value worked out at 40% and the “Enzyme degradation CDK9 (% remaining) @ 10 μM” value was found to be 30%. Also, at CDK2, the “Enzyme degradation CDK2 (% remaining) @ 0.1 μM” value was 70%, the “Enzyme degradation CDK2 (% remaining) @ 1 μM” value was found to be 60% and the “Enzyme degradation CDK2 (% remaining) @ 10 μM” value is 50%.

Take `O=C1CC[C@H](N2C(=O)c3ccc(N4CCN(CC5CCN(c6ccc(Nc7ncnc8c7ncn8[C@H]7C[C@@H](NC(=O)c8c(Cl)cccc8Cl)C7)cc6)CC5)CC4)cc3C2=O)C(=O)N1` [Compound 300, 2,6-dichloro-N-((1s,3s)-3-(6-((4-(4-((4-(2-(2,6-dioxopiperidin-3-yl)-1,3-dioxoisoindolin-5-yl)piperazin-1-yl)methyl)piperidin-1-yl)phenyl)amino)-9H-purin-9-yl)cyclobutyl)benzamide]: at CDK9, the “Enzyme degradation CDK9 (% remaining) @ 0.1 μM” value stood at 10%, the “Enzyme degradation CDK9 (% remaining) @ 1 μM” value is 0% and the “Enzyme degradation CDK9 (% remaining) @ 10 μM” value came out at 0%. Further, at CDK2, the “Enzyme degradation CDK2 (% remaining) @ 0.1 μM” value is given as 10/10/10%, the “Enzyme degradation CDK2 (% remaining) @ 1 μM” value was 10/10/10% and the “Enzyme degradation CDK2 (% remaining) @ 10 μM” value is given as 10/10/10%.

`Cc1cccc(C(=O)NC2CC(n3cnc4c(NCc5cccc(N6CCN(CC7CCN(C(=O)CNc8ccc9c(c8)C(=O)N([C@H]8CCC(=O)NC8=O)C9=O)CC7)CC6)c5)ncnc43)C2)n1` (stereo partly drawn) [Compound 135, N-((1s,3s)-3-(6-((3-(4-((1-((2-(2,6-dioxopiperidin-3-yl)-1,3-dioxoisoindolin-5-yl)glycyl)piperidin-4-yl)methyl)piperazin-1-yl)benzyl)amino)-9H-purin-9-yl)cyclobutyl)-6-methylpicolinamide]: at CDK9, the “Enzyme degradation CDK9 (% remaining) @ 0.1 μM” value is on record as 0/0/0%, the “Enzyme degradation CDK9 (% remaining) @ 1 μM” value is reported as 0/0/0% and the “Enzyme degradation CDK9 (% remaining) @ 10 μM” value is on record as 0/0/0%. Also, at CDK2, the “Enzyme degradation CDK2 (% remaining) @ 0.1 μM” value stood at 70%, the “Enzyme degradation CDK2 (% remaining) @ 1 μM” value worked out at 60% and the “Enzyme degradation CDK2 (% remaining) @ 10 μM” value is 40%.

As to `Cc1cccc(C(=O)NC2CC(n3cnc4c(Nc5ccc(N6CCN(C7CC8(CCN(c9ccc%10c(c9)C(=O)N([C@H]9CCC(=O)NC9=O)C%10=O)CC8)C7)CC6)cc5)ncnc43)C2)n1` (stereo partly drawn) [Compound 384, N-((1s,3s)-3-(6-((4-(4-(7-(2-(2,6-dioxopiperidin-3-yl)-1,3-dioxoisoindolin-5-yl)-7-azaspiro[3.5]nonan-2-yl)piperazin-1-yl)phenyl)amino)-9H-purin-9-yl)cyclobutyl)-6-methylpicolinamide], on CDK9, the “Enzyme degradation CDK9 (% remaining) @ 0.1 μM” value is 0/0/0%, the “Enzyme degradation CDK9 (% remaining) @ 1 μM” value is 0/0/0% and the “Enzyme degradation CDK9 (% remaining) @ 10 μM” value is reported as 0/0/0%. In addition, at CDK2, the “Enzyme degradation CDK2 (% remaining) @ 0.1 μM” value is on record as 20/20/20%, the “Enzyme degradation CDK2 (% remaining) @ 1 μM” value is on record as 20/20/20% and the “Enzyme degradation CDK2 (% remaining) @ 10 μM” value was 20/20/20%.

As for `O=C1CCC(N2C(=O)c3cccc(OCC(=O)N4CCC5(CC4)CC(N4CCC(c6ccc(Nc7ncnc8c7ncn8[C@H]7C[C@@H](NC(=O)Cc8ccccc8)C7)cc6)CC4)C5)c3C2=O)C(=O)N1` (stereo partly drawn) [Compound 293, N-((1s,3s)-3-(6-((4-(1-(7-(2-((2-(2,6-dioxopiperidin-3-yl)-1,3-dioxoisoindolin-4-yl)oxy)acetyl)-7-azaspiro[3.5]nonan-2-yl)piperidin-4-yl)phenyl)amino)-9H-purin-9-yl)cyclobutyl)-2-phenylacetamide], at CDK9, the “Enzyme degradation CDK9 (% remaining) @ 0.1 μM” value is 0/0/0%, the “Enzyme degradation CDK9 (% remaining) @ 1 μM” value is given as 0/0/0% and the “Enzyme degradation CDK9 (% remaining) @ 10 μM” value is recorded as 0/0/0%. Besides, on CDK2, the “Enzyme degradation CDK2 (% remaining) @ 0.1 μM” value is recorded as 0/0/0%, the “Enzyme degradation CDK2 (% remaining) @ 1 μM” value is on record as 0/0/0% and the “Enzyme degradation CDK2 (% remaining) @ 10 μM” value is on record as 0/0/0%.

In the case of `O=C1CC[C@H](N2C(=O)c3cccc(NCC(=O)N4CCN(CC5CCN(c6ccc(Nc7ncnc8c7ncn8[C@H]7C[C@@H](NC(=O)Cc8ccccc8)C7)cc6)CC5)CC4)c3C2=O)C(=O)N1` [Compound 322, N-((1s,3s)-3-(6-((4-(4-((4-((2-(2,6-dioxopiperidin-3-yl)-1,3-dioxoisoindolin-4-yl)glycyl)piperazin-1-yl)methyl)piperidin-1-yl)phenyl)amino)-9H-purin-9-yl)cyclobutyl)-2-phenylacetamide], on CDK9, the “Enzyme degradation CDK9 (% remaining) @ 0.1 μM” value worked out at 20%, the “Enzyme degradation CDK9 (% remaining) @ 1 μM” value was 10% and the “Enzyme degradation CDK9 (% remaining) @ 10 μM” value came to 20%. For the same molecule, on CDK2, the “Enzyme degradation CDK2 (% remaining) @ 0.1 μM” value is given as 20%, the “Enzyme degradation CDK2 (% remaining) @ 1 μM” value worked out at 10% and the “Enzyme degradation CDK2 (% remaining) @ 10 μM” value turned out to be 20%.

As to `O=C1CC[C@H](N2C(=O)c3cccc(NCC(=O)N4CCN(CC5CCN(c6ccc(Nc7ncnc8c7ncn8[C@H]7C[C@@H](NC(=O)c8c(Cl)cccc8Cl)C7)cc6)CC5)CC4)c3C2=O)C(=O)N1` [Compound 311, 2,6-dichloro-N-((1s,3s)-3-(6-((4-(4-((4-((2-(2,6-dioxopiperidin-3-yl)-1,3-dioxoisoindolin-4-yl)glycyl)piperazin-1-yl)methyl)piperidin-1-yl)phenyl)amino)-9H-purin-9-yl)cyclobutyl)benzamide], at CDK9, the “Enzyme degradation CDK9 (% remaining) @ 0.1 μM” value is reported as 10%, the “Enzyme degradation CDK9 (% remaining) @ 1 μM” value was determined as 0% and the “Enzyme degradation CDK9 (% remaining) @ 10 μM” value is 0%. For the same molecule, at CDK2, the “Enzyme degradation CDK2 (% remaining) @ 0.1 μM” value was found to be 10%, the “Enzyme degradation CDK2 (% remaining) @ 1 μM” value is reported as 20% and the “Enzyme degradation CDK2 (% remaining) @ 10 μM” value is listed as 20%.

For the molecule `O=C(COc1ccc2c(c1)C(=O)N(C1CCC(=O)NC1=O)C2=O)NC[C@H]1CC[C@H](CN2CCN(c3ccc(Nc4ncnc5c4ncn5[C@H]4C[C@@H](NC(=O)Cc5ccccc5)C4)cc3)CC2)CC1` (stereo partly drawn) [Compound 221, 2-((2-(2,6-dioxopiperidin-3-yl)-1,3-dioxoisoindolin-5-yl)oxy)-N-(((1r,4r)-4-((4-(4-((9-((1s,3s)-3-(2-phenylacetamido)cyclobutyl)-9H-purin-6-yl)amino)phenyl)piperazin-1-yl)methyl)cyclohexyl)methyl)acetamide], at CDK9, the “Enzyme degradation CDK9 (% remaining) @ 0.1 μM” value worked out at 100%, the “Enzyme degradation CDK9 (% remaining) @ 1 μM” value turned out to be 60% and the “Enzyme degradation CDK9 (% remaining) @ 10 μM” value amounted to 0%. For the same molecule, on CDK2, the “Enzyme degradation CDK2 (% remaining) @ 0.1 μM” value was 100/100/100%, the “Enzyme degradation CDK2 (% remaining) @ 1 μM” value was 100/100/100% and the “Enzyme degradation CDK2 (% remaining) @ 10 μM” value is given as 100/100/100%.
